Results reported in PubChem BioAssay AID248 (DTP/NCI, 2004).
Where “and” joins values, the source holds several entries; their conditions need not be identical. Equal entries are not always repeated. Inconclusive results and toxic doses are left out. No stated cut-off is given here; in the data, active means T/C of 150% or more; inactive means T/C below 125%.

System: L1210 leukemia ip in BDF1 mice, survival T/C
Assay: NCI In Vivo Anticancer Drug Screen. Data for tumor model L1210 Leukemia (intraperitoneal) in B6D2F1 (BDF1) mice
Settings: endpoint: mean survival time, higher = longer survival
Summary of the method: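 Ratio derived from survival: compound-dosed mice over vehicle-dosed mice, all bearing a transplantable tumor.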

[1] = dose: 100.0 mg/kg/injection, schedule: Q01DX009 (ip), vehicle: saline
[2] = dose: 100.0 mg/kg/injection, schedule: Q04DX003 (ip), vehicle: saline
[3] = dose: 200.0 mg/kg/injection, schedule: Q01DX009 (ip), vehicle: saline
[4] = dose: 200.0 mg/kg/injection, schedule: Q04DX003 (ip), vehicle: saline
[5] = dose: 400.0 mg/kg/injection, schedule: Q01DX009 (ip), vehicle: saline
[6] = dose: 400.0 mg/kg/injection, schedule: Q04DX003 (ip), vehicle: saline
[7] = dose: 100.0 mg/kg/injection, schedule: Q04DX002 (ip), vehicle: Klucel (hydroxypropylcellulose) (HPC)
[8] = dose: 200.0 mg/kg/injection, schedule: Q04DX002 (ip), vehicle: Klucel (hydroxypropylcellulose) (HPC)
[9] = dose: 400.0 mg/kg/injection, schedule: Q04DX002 (ip), vehicle: Klucel (hydroxypropylcellulose) (HPC)
[10] = dose: 100.0 mg/kg/injection, schedule: Q04DX002 (ip), vehicle: saline with Tween-80
[11] = dose: 200.0 mg/kg/injection, schedule: Q04DX002 (ip), vehicle: saline with Tween-80
[12] = dose: 100.0 mg/kg/injection, schedule: Q01DX009 (ip), vehicle: Klucel (hydroxypropylcellulose) (HPC)
[13] = dose: 200.0 mg/kg/injection, schedule: Q01DX009 (ip), vehicle: Klucel (hydroxypropylcellulose) (HPC)
[14] = dose: 100.0 mg/kg/injection, schedule: Q01DX001 (ip), vehicle: saline
[15] = dose: 100.0 mg/kg/injection, schedule: Q04DX003 (ip), vehicle: Klucel (hydroxypropylcellulose) (HPC)
[16] = dose: 200.0 mg/kg/injection, schedule: Q01DX001 (ip), vehicle: saline
[17] = dose: 200.0 mg/kg/injection, schedule: Q04DX003 (ip), vehicle: Klucel (hydroxypropylcellulose) (HPC)
[18] = dose: 100.0 mg/kg/injection, schedule: Q01DX001 (ip), vehicle: carboxymethylcellulose (CMC)
[19] = dose: 200.0 mg/kg/injection, schedule: Q01DX001 (ip), vehicle: carboxymethylcellulose (CMC)
[20] = dose: 400.0 mg/kg/injection, schedule: Q01DX001 (ip), vehicle: carboxymethylcellulose (CMC)

Measured: T/C

CCOC(=O)c1ccc(N=NN(C)C)cc1
inactive: dose: 30.0 mg/kg/injection, schedule: Q01DX Z (ip), vehicle: carboxymethylcellulose (CMC) 97 % of control and 102 % of control | dose: 60.0 mg/kg/injection, schedule: Q01DX Z (ip), vehicle: carboxymethylcellulose (CMC) 107 % of control | dose: 90.0 mg/kg/injection, schedule: Q01DX Z (ip), vehicle: carboxymethylcellulose (CMC) 110 % of control and 124 % of control

NC(=O)n1nccc1N
inactive: [1] 100 % of control | [2] 94 % of control | [3] 103 % of control | [4] 104 % of control | [5] 105 % of control | [6] 91 % of control

CCCC(O)C[N+](=O)[O-] (stereo not given)
inactive: [2] 103 % of control | [4] 97 % of control | [6] 101 % of control

Nc1ncc[nH]1
inactive: [1] 107 % of control | dose: 100.0 mg/kg/injection, schedule: Q04DX002 (ip), vehicle: saline 90 % of control | [3] 114 % of control | dose: 200.0 mg/kg/injection, schedule: Q04DX002 (ip), vehicle: saline 93 % of control | [5] 122 % of control | dose: 400.0 mg/kg/injection, schedule: Q04DX002 (ip), vehicle: saline 90 % of control

C1CCC2(CC1)SSC1(CCCCC1)S2
inactive: dose: 100.0 mg/kg/injection, schedule: Q04DX003 (ip), vehicle: other 95 % of control | dose: 200.0 mg/kg/injection, schedule: Q04DX003 (ip), vehicle: other 98 % of control | dose: 400.0 mg/kg/injection, schedule: Q04DX003 (ip), vehicle: other 98 % of control

COc1ccc(CCNC(=S)NC(=O)c2ccccc2)cc1OC
inactive: dose: 100.0 mg/kg/injection, schedule: Q01DX009 (sc), vehicle: olive oil, sesame oil, peanut oil 98 % of control | dose: 100.0 mg/kg/injection, schedule: Q04DX003 (sc), vehicle: olive oil, sesame oil, peanut oil 100 % of control | dose: 200.0 mg/kg/injection, schedule: Q01DX009 (sc), vehicle: olive oil, sesame oil, peanut oil 104 % of control | dose: 200.0 mg/kg/injection, schedule: Q04DX003 (sc), vehicle: olive oil, sesame oil, peanut oil 98 % of control | dose: 400.0 mg/kg/injection, schedule: Q01DX009 (sc), vehicle: olive oil, sesame oil, peanut oil 98 % of control | dose: 400.0 mg/kg/injection, schedule: Q04DX003 (sc), vehicle: olive oil, sesame oil, peanut oil 103 % of control

CCc1ccccc1OC(=O)Nc1ccccc1C
inactive: [7] 95 % of control | [8] 100 % of control | [9] 95 % of control

O=C(N/N=C/c1ccc(Cl)cc1Cl)C(O)C(O)C(O)C(O)CO (stereo not given)
inactive: dose: 12.5 mg/kg/injection, schedule: Q04DX003 (ip), vehicle: saline with Tween-80 105 % of control | dose: 25.0 mg/kg/injection, schedule: Q04DX003 (ip), vehicle: saline with Tween-80 101 % of control | dose: 50.0 mg/kg/injection, schedule: Q01DX001 (ip), vehicle: saline with Tween-80 91 % of control | dose: 50.0 mg/kg/injection, schedule: Q01DX009 (ip), vehicle: saline with Tween-80 90 % of control | dose: 50.0 mg/kg/injection, schedule: Q04DX003 (ip), vehicle: saline with Tween-80 96 % of control and 92 % of control | dose: 100.0 mg/kg/injection, schedule: Q01DX001 (ip), vehicle: saline with Tween-80 104 % of control | [10] 92 % of control | dose: 200.0 mg/kg/injection, schedule: Q01DX001 (ip), vehicle: saline with Tween-80 90 % of control | [11] 86 % of control | dose: 400.0 mg/kg/injection, schedule: Q04DX002 (ip), vehicle: saline with Tween-80 97 % of control

C=CCNC(=S)Nc1ccc(OC(=O)NC(C)(C)C)cc1
inactive: [12] 94 % of control | [13] 95 % of control | dose: 400.0 mg/kg/injection, schedule: Q01DX009 (ip), vehicle: Klucel (hydroxypropylcellulose) (HPC) 89 % of control

CC(CNC1=NCCN1)c1cccc2ccccc12 (stereo not given)
inactive: dose: 50.0 mg/kg/injection, schedule: Q01DX009 (ip), vehicle: Klucel (hydroxypropylcellulose) (HPC) 111 % of control | [12] 103 % of control | [13] 108 % of control

Oc1ccccc1-c1nc2cc(Cl)ccc2o1
inactive: [7] 97 % of control | [8] 97 % of control | [9] 101 % of control

CCN(CC)CCCC(C)Nc1cc(/C=C/c2ccc(Cl)cc2)nc(/C=C/c2ccc(Cl)cc2)n1 (stereo not given)
inactive: dose: 50.0 mg/kg/injection, schedule: Q04DX003 (ip), vehicle: Klucel (hydroxypropylcellulose) (HPC) 96 % of control | [14] 96 % of control | [15] 96 % of control | [16] 98 % of control | [17] 98 % of control

CC(=O)Nc1ccc(OCCCOc2ccc([N+](=O)[O-])cc2)cc1
inactive: [15] 101 % of control | [17] 95 % of control | dose: 400.0 mg/kg/injection, schedule: Q04DX003 (ip), vehicle: Klucel (hydroxypropylcellulose) (HPC) 91 % of control

Nc1nc2c(ncn2C2OC(COC(=O)c3ccc(Cl)cc3)C(OC(=O)c3ccc(Cl)cc3)C2OC(=O)c2ccc(Cl)cc2)c(=O)[nH]1 (stereo not given)
inactive: dose: 50.0 mg/kg/injection, schedule: Q01DX001 (ip), vehicle: carboxymethylcellulose (CMC) 95 % of control | [18] 97 % of control | [19] 91 % of control | [20] 97 % of control

O=C(CNC(=O)c1ccccc1)Nc1ccccc1
inactive: [14] 105 % of control | [16] 97 % of control | dose: 400.0 mg/kg/injection, schedule: Q01DX001 (ip), vehicle: saline 97 % of control

O=C(O)c1cccc([N+](=O)[O-])c1
inactive: dose: 50.0 mg/kg/injection, schedule: Q04DX002 (ip), vehicle: Klucel (hydroxypropylcellulose) (HPC) 88 % of control | [7] 94 % of control

CCc1nc(-c2ccccc2)c(-c2ccccc2)[nH]1
inactive: dose: 100.0 mg/kg/injection, schedule: Q01DX009 (ip), vehicle: saline with Tween-80 90 % of control | dose: 200.0 mg/kg/injection, schedule: Q01DX009 (ip), vehicle: saline with Tween-80 98 % of control | dose: 400.0 mg/kg/injection, schedule: Q01DX009 (ip), vehicle: saline with Tween-80 87 % of control

CCCCS(=O)(=O)c1nc2ccc([N+](=O)[O-])cc2s1
inactive: [10] 92 % of control | [11] 95 % of control

Cc1nc(N)nc(N)c1CCCOc1ccc(N)cc1
inactive: dose: 100.0 mg/kg/injection, schedule: Q01DX001 (ip), vehicle: Klucel (hydroxypropylcellulose) (HPC) 103 % of control | dose: 200.0 mg/kg/injection, schedule: Q01DX001 (ip), vehicle: Klucel (hydroxypropylcellulose) (HPC) 97 % of control | dose: 400.0 mg/kg/injection, schedule: Q01DX001 (ip), vehicle: Klucel (hydroxypropylcellulose) (HPC) 100 % of control

ClCCN(CCCl)c1ccc(/C=N/N2CCN(/N=C/c3ccc(N(CCCl)CCCl)cc3)CC2)cc1
inactive: [18] 97 % of control | [19] 92 % of control | [20] 106 % of control

CCC(C)n1c(C)cc(=O)n1C(C)CC (stereo not given)
inactive: dose: 15.0 mg/kg/injection, schedule: Q01DX001 (ip), vehicle: saline 101 % of control | dose: 30.0 mg/kg/injection, schedule: Q01DX001 (ip), vehicle: saline 97 % of control | dose: 60.0 mg/kg/injection, schedule: Q01DX001 (ip), vehicle: saline 101 % of control
